Converted amounts (≈) assume the structure as drawn. Positions of bridges follow the written chain, without caps; N, C: chain ends. Non-standard residues stand in square brackets, D forms with d. Residues, ends and D or L forms follow the SMILES beside them. *: point of attachment. X1 = CC[C@H](C)CCCCC(=O)*; Dab = NCC[C@H](N)C(=O)O
What was measured:
Assay type in all cases: functional
Acinetobacter baumannii [1] = assay: Antibacterial activity against Acinetobacter baumannii ATCC 17978 assessed as inhibition of bacterial growth incubated for 18 hrs by two fold broth microdilution assay
Escherichia coli [2] = assay: Antibacterial activity against Escherichia coli ATCC 25922 assessed as inhibition of bacterial growth incubated for 18 hrs by two fold broth microdilution assay
Pseudomonas aeruginosa [3] = assay: Antibacterial activity against Pseudomonas aeruginosa PAO1 assessed as inhibition of bacterial growth incubated for 18 hrs by two fold broth microdilution assay
Staphylococcus aureus = assay: Antibacterial activity against methicilin-resistant Staphylococcus aureus assessed as inhibition of bacterial growth incubated for 18 hrs by two fold broth microdilution assay
Enterococcus faecium [4] = assay: Antibacterial activity against Enterococcus faecium 114278 assessed as inhibition of bacterial growth incubated for 18 hrs by two fold broth microdilution assay
Enterococcus faecium [5] = assay: Antibacterial activity against Enterococcus faecium 128149 assessed as inhibition of bacterial growth incubated for 18 hrs by two fold broth microdilution assay
Pseudomonas aeruginosa [6] = assay: Antibacterial activity against multi-drug resistant Pseudomonas aeruginosa clinical isolate PA114228 assessed as inhibition of bacterial growth incubated for 18 hrs by two fold broth microdilution assay
Pseudomonas aeruginosa [7] = assay: Antibacterial activity against multi-drug resistant Pseudomonas aeruginosa clinical isolate PA262 assessed as inhibition of bacterial growth incubated for 18 hrs by two fold broth microdilution assay
Pseudomonas aeruginosa [8] = assay: Antibacterial activity against multi-drug resistant Pseudomonas aeruginosa clinical isolate PA101243 assessed as inhibition of bacterial growth incubated for 18 hrs by two fold broth microdilution assay
Escherichia coli [9] = assay: Antibacterial activity against multi-drug resistant Escherichia coli clinical isolate EC107115 assessed as inhibition of bacterial growth incubated for 18 hrs by two fold broth microdilution assay
Pseudomonas aeruginosa [10] = assay: Antibacterial activity against multi-drug resistant Pseudomonas aeruginosa clinical isolate PA264 assessed as inhibition of bacterial growth incubated for 18 hrs by two fold broth microdilution assay
Escherichia coli [11] = assay: Antibacterial activity against multi-drug resistant Escherichia coli clinical isolate EC94474 assessed as inhibition of bacterial growth incubated for 18 hrs by two fold broth microdilution assay
Pseudomonas aeruginosa [12] = assay: Antibacterial activity against multi-drug resistant Pseudomonas aeruginosa clinical isolate PA259 assessed as inhibition of bacterial growth incubated for 18 hrs by two fold broth microdilution assay
Acinetobacter baumannii [13] = assay: Antibiotic adjuvant activity against Acinetobacter baumannii ATCC 17978 assessed as fold potentiation incubated for 18 hrs in presence of Rifampicin by two fold broth microdilution checkerboard assay
Escherichia coli [14] = assay: Antibiotic adjuvant activity against Escherichia coli ATCC 25922 assessed as rifampicin MIC incubated for 18 hrs in presence of Rifampicin by two fold broth microdilution checkerboard assay
Acinetobacter baumannii [15] = assay: Antibiotic adjuvant activity against Acinetobacter baumannii ATCC 17978 assessed as rifampicin MIC incubated for 18 hrs in presence of Rifampicin by two fold broth microdilution checkerboard assay
Escherichia coli [16] = assay: Antibiotic adjuvant activity against Escherichia coli ATCC 25922 assessed as fold potentiation incubated for 18 hrs in presence of Rifampicin by two fold broth microdilution checkerboard assay
Pseudomonas aeruginosa [17] = assay: Antibiotic adjuvant activity against Pseudomonas aeruginosa PAO1 assessed as fold potentiation incubated for 18 hrs in presence of Rifampicin by two fold broth microdilution checkerboard assay

Molecule | MIC (Acinetobacter baumannii [1]) [µg/mL] | MIC (Escherichia coli [2]) [µg/mL] | MIC (Pseudomonas aeruginosa [3]) [µg/mL] | other results
Cl.NC[C@H]1O[C@H](O[C@H]2[C@H](OCc3ccc(-c4ccccc4)cc3)[C@@H](O[C@H]3O[C@H](COCc4ccc(-c5ccccc5)cc4)[C@@H](OCc4ccc(-c5ccccc5)cc4)[C@H](N)[C@H]3OCc3ccc(-c4ccccc4)cc3)[C@H](N)C[C@@H]2N)[C@H](N)C[C@@H]1OCc1ccc(-c2ccccc2)cc1 | > 128 | > 128 | > 128 | 
CC[C@H](C)CCCCC(=O)N[C@@H](CCN)C(=O)N[C@H](C(=O)N[C@@H](CCN)C(=O)N[C@H]1CCNC(=O)[C@H]([C@@H](C)O)NC(=O)[C@H](CCN)NC(=O)[C@H](CCN)NC(=O)[C@H](CC(C)C)NC(=O)[C@@H](Cc2ccccc2)NC(=O)[C@H](CCN)NC1=O)[C@@H](C)O (X1-[Dab]T[Dab][Dab][Dab][dF]L[Dab][Dab]T; lactam 4-C) |  |  |  | MIC (Staphylococcus aureus): > 128 µg/mL; MIC (Enterococcus faecium [4]): > 128 µg/mL; MIC (Enterococcus faecium [5]): > 128 µg/mL
Cl.NC[C@H]1O[C@H](O[C@H]2[C@H](OCc3cc(Cl)cc(Cl)c3)[C@@H](O[C@H]3O[C@H](COCc4cc(Cl)cc(Cl)c4)[C@@H](OCc4cc(Cl)cc(Cl)c4)[C@H](N)[C@H]3OCc3cc(Cl)cc(Cl)c3)[C@H](N)C[C@@H]2N)[C@H](N)C[C@@H]1OCc1cc(Cl)cc(Cl)c1 | > 128 | > 128 | > 128 | 
C[C@H]1c2cccc(O)c2C(=O)C2=C(O)[C@]3(O)C(=O)C(C(N)=O)=C(O)[C@@H](N(C)C)[C@@H]3[C@@H](O)[C@@H]21.O [DOXYCYCLINE] |  |  |  | MIC (Pseudomonas aeruginosa [6]): > 128 µg/mL; MIC (Pseudomonas aeruginosa [7]): 512 µg/mL; MIC (Pseudomonas aeruginosa [8]): > 128 µg/mL; MIC (Escherichia coli [9]): 128 µg/mL; MIC (Pseudomonas aeruginosa [10]): 64 µg/mL; MIC (Escherichia coli [11]): 64 µg/mL; MIC (Pseudomonas aeruginosa [12]): 256 µg/mL
Cl.NC[C@H]1O[C@H](O[C@H]2[C@H](OCc3ccccc3)[C@@H](OCc3ccccc3)[C@H](N)C[C@@H]2N)[C@H](N)C[C@@H]1OCc1ccccc1 | > 128 | > 128 | > 128 | fold change (FC) (Acinetobacter baumannii [13]): 4; MIC (Escherichia coli [14]): 0.0312 µg/mL; MIC (Acinetobacter baumannii [15]): 1 µg/mL; fold change (FC) (Escherichia coli [16]): 512; fold change (FC) (Pseudomonas aeruginosa [17]): 4
COLISTIN | 0.5 | 0.5 | 1 | 
Cl.NC[C@H]1O[C@H](O[C@H]2[C@H](OCc3ccc(Cl)cc3)[C@@H](O[C@H]3O[C@H](COCc4ccc(Cl)cc4)[C@@H](OCc4ccc(Cl)cc4)[C@H](N)[C@H]3OCc3ccc(Cl)cc3)[C@H](N)C[C@@H]2N)[C@H](N)C[C@@H]1OCc1ccc(Cl)cc1 | > 128 | > 128 | > 128 | 
NC[C@H]1O[C@H](O[C@H]2[C@H](O)[C@@H](O[C@H]3O[C@H](CO)[C@@H](O)[C@H](N)[C@H]3O)[C@H](N)C[C@@H]2N)[C@H](N)C[C@@H]1O [TOBRAMYCIN] | 0.5 (≈ 1.07 µM) | 2 (≈ 4.28 µM) | 1 (≈ 2.14 µM) | 
